Eight molecules from US9464084B2, “P2X7 modulators” (Janssen Pharmaceutica NV, priority 2013, dated 2016) can be followed below.

Assay [1] has as its target T1, P2X7 (Homo sapiens (Human), UniProt Q99572). Put plainly: Ca2+ flux (FLIPR) in 1321N1 cells expressing recombinant human P2X7 channel.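 Further: Calcium-4 dye-loaded cells exposed to compound for 30 min before agonist addition, fluorescence change read 180 s after agonist.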 The class given is cell-based. The conditions noted are these: 250 μM BzATP. (Calcium assays in cells follow changes in intracellular calcium, usually with a dye or a luminescent sensor.)
Assay [2] concerns the target T1, P2X7. The assay is described as follows: P2X7 antagonism in human PBMCs (LPS + Bz-ATP induced IL-1β release, ELISA).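 On all read-outs here: PBMCs from donor human blood, with a further 1.5 h incubation of the cells in the assay.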 In kind it is cell-based. The settings on record: LPS 30 ng/ml, Bz-ATP 0.5 mM; for PBMC 10 μM (% control): compound 10 μM.
Another assay addresses rat P2X7 (Rattus norvegicus (Rat), UniProt Q64663). The assay is described as follows: Ca2+ flux (FLIPR) in 1321N1 cells expressing recombinant rat P2X7 channel.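 Further: Calcium-4 dye fluorescence change read 180 s after agonist addition, following 30 min cell preincubation with test compound.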 The settings on record: 250 μM BzATP. The class given is cell-based.
Assay [3] deals with T1, P2X7. The assay is described as follows: Radioligand binding, tritiated A-804598, human P2X7-1321N1 cell membranes.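 Further: ki obtained from the binding IC50 after correction for tracer concentration and tracer affinity.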 The settings on record: 1 hour at 4° C.
Protocol: On the day of the experiment, cell membrane preparations were made according to standard published methods. […] The assay was terminated by filtration (GF/B filters pre-soaked with 0.3% PEI) and washed with washing buffer (Tris-HCl 50 mM). The IC50 generated in the binding assay was corrected for tracer concentration and affinity of the tracer to derive at the affinity (Ki) of the test compounds.

T1 sequence (Q99572 whole entry): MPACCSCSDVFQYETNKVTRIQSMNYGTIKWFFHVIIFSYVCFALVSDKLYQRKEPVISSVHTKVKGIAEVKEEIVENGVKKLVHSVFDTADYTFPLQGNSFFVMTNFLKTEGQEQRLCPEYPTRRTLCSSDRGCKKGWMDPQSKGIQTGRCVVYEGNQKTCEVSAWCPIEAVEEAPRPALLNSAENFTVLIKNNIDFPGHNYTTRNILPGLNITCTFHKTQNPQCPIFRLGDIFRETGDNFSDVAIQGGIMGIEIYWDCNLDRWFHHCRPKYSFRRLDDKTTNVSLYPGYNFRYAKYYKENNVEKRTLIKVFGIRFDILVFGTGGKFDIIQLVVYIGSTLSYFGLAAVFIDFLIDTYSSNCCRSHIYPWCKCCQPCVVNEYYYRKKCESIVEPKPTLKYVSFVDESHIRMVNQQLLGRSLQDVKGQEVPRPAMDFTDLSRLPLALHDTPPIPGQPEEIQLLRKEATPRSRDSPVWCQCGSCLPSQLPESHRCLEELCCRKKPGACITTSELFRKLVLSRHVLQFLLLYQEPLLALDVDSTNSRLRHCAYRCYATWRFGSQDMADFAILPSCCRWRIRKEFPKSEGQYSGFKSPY
Sequence of rat P2X7 (Q64663 whole entry): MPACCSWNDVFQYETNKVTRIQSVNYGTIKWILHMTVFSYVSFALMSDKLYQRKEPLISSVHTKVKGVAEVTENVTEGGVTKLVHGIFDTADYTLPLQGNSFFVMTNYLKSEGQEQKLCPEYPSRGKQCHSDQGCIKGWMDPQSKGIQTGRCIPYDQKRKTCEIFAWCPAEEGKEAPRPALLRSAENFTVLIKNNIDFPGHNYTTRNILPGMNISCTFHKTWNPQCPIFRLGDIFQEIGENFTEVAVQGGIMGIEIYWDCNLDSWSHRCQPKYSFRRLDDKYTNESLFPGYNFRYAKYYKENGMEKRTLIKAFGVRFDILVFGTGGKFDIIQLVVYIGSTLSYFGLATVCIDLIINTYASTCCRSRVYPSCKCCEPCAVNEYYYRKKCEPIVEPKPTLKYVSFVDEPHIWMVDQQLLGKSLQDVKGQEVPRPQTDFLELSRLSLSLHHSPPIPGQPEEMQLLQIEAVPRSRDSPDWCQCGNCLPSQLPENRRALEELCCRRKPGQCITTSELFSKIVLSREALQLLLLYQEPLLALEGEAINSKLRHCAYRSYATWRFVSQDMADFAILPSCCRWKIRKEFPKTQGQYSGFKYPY

A word on the IC50: it is the midpoint of a concentration-inhibition curve. As usually defined, the Ki is a measure of affinity in units of concentration, obtained from inhibition or displacement. On to `CC1CN(C(=O)c2cccc(C(F)(F)F)c2Cl)Cc2nnn(-c3ccc(F)cc3)c21` (centres unmarked) [Example 246, (2-Chloro-3-(trifluoromethyl)phenyl)(1-(4-fluorophenyl)-7-methyl-6,7-dihydro-1H-[1,2,3]triazolo[4,5-c]pyridin-5(4H)-yl)methanone], for which the IC50 at P2X7 [1] amounted to 230 nM; on rat P2X7 it was 6530 nM. The “PBMC 10 μM (% control)” value at P2X7 [2] was −3.1 % control. For the same molecule, the Ki at P2X7 [3] stood at 174 nM.
`Cc1cc(C)nc(-n2nnc3c2CCN(C(=O)c2cccc(C(F)(F)F)c2Cl)C3C)c1` (centres unmarked) [Example 300, (2-chloro-3-(trifluoromethyl)phenyl)(1-(4,6-dimethylpyridin-2-yl)-4-methyl-6,7-dihydro-1H-[1,2,3]triazolo[4,5-c]pyridin-5(4H)-yl)methanone]: the values for the IC50 at P2X7 [1] and at rat P2X7 were 171 nM and 20200 nM, respectively. For the same molecule, the “PBMC 10 μM (% control)” value at P2X7 [2] is recorded as −1.8 % control. This molecule showed a Ki on P2X7 [3] of 398 nM.
Regarding `O=C(c1cccc(C(F)(F)F)c1Cl)N1C=Cc2c(nnn2-c2cnccn2)C1` [Example 89, 5-{[2-Chloro-3-(trifluoromethyl)phenyl]carbonyl}-1-pyrazin-2-yl-4,5-dihydro-1H-[1,2,3]triazolo[4,5-c]pyridine], the IC50 on P2X7 [1] stood at 5.5 nM; at rat P2X7, 908 nM. Further, the “PBMC 1 μM (% control)” value on P2X7 [2] (compound 1 μM) was −1.5 % control. Besides, affinity on P2X7 [3] was put at a Ki of 15.8 nM.
Take `CC1Cc2c(nnn2-c2ccc(F)cc2)C(C)N1C(=O)c1cccc(Cl)c1Cl` (centres unmarked) [Example 242, (2,3-Dichlorophenyl)(1-(4-fluorophenyl)-4,6-dimethyl-6,7-dihydro-1H-[1,2,3]triazolo[4,5-c]pyridin-5(4H)-yl)methanone]: the values for the IC50 on P2X7 [1] and on rat P2X7 were 81.5 nM and 60.4 nM, respectively. The “PBMC 10 μM (% control)” value on P2X7 [2] is on record as −3.4 % control. The molecule further had a Ki on P2X7 [3] of 25.1 nM.
The matching figures for `CC1c2nnn(-c3ccc(F)cc3)c2CCN1C(=O)c1cccc(C(F)(F)F)c1Cl` (centres unmarked) [Example 83, 5-{[2-Chloro-3-(trifluoromethyl)phenyl]carbonyl}-1-(4-fluorophenyl)-4-methyl-4,5,6,7-tetrahydro-1H-[1,2,3]triazolo[4,5-c]pyridine]: 16.9 nM, 397 nM, 4.5 % control and 158 nM.
For `O=C(c1ccc(Cl)cc1F)N1CCc2c(nnn2-c2ncccn2)C1` [Example 280, (4-chloro-2-fluorophenyl)(1-(pyrimidin-2-yl)-6,7-dihydro-1H-[1,2,3]triazolo[4,5-c]pyridin-5(4H)-yl)methanone], the IC50 on P2X7 [1] came out at 568 nM; on rat P2X7 it was 1230 nM. The “PBMC 10 μM (% control)” value on P2X7 [2] turned out to be 3.4 % control. The molecule also came in with a Ki at P2X7 [3] of 63.1 nM.
The like results for `CC1c2ncn(-c3ccc(F)cc3)c2CCN1C(=O)c1cccc(C(F)(F)F)c1F` (centres unmarked) [Example 20, (2-Fluoro-3-(trifluoromethyl)phenyl)(1-(4-fluorophenyl)-4-methyl-6,7-dihydro-1H-imidazo[4,5-c]pyridin-5(4H)-yl)methanone] were, in that order, 931 nM, 2370 nM, 8.6 % control and 501 nM.
The like results for `Cc1cccc(-n2nnc3c2CCN(C(=O)c2cccc(C(F)(F)F)c2Cl)[C@H]3C)n1` (single isomer, unassigned) [Example 227, (S*)-(2-chloro-3-(trifluoromethyl)phenyl)(4-methyl-1-(6-methylpyridin-2-yl)-6,7-dihydro-1H-[1,2,3]triazolo[4,5-c]pyridin-5(4H)-yl)methanone] were, in that order, 7.2 nM, 10.2 nM, −0.4 % control and 20 nM.
